Source: patent US5747495A, “Method for treating hypertension using pyrazolopyrimidine derivatives” (Maeda; Hiroshi, priority 1995, dated 1998)
“And” between values parts separate entries of the source, which are not always exact repeats. Identical values can stand only once.

How the values were obtained:
[1] = target: T1, cow milk xanthine oxidase (Bos taurus, UniProt P80457); test: Inhibition of uric acid production by xanthine oxidase in vitro; assay type: biochemical
T1 construct: in the presence of cow milk xanthine oxidase; from tissue; host or cells: cow milk
Experimental: Inhibitory Effect of AHPP Against Uric Acid Production by Xanthine Oxidase In Vitro
Rate of uric acid production was determined by measuring the increase of an optical absorbance at 290 nm in 50 mM phosphate buffer solution (pH 7.5) containing 2.19-21.9 μmole/L of xanthine and 0-0.44 μmole/L AHPP in the presence of cow milk xanthine oxidase in the final concentration of 3.33 mU/ml. […] The inhibitory coefficient (Ki) of AHPP for xanthine oxidase was determined to be 0.2 μM, by an analysis of its reaction velocity kinetics.

[2] = target: xanthine oxidase derived from cow milk (Bos taurus, UniProt P80457); test: Inhibition of superoxide production by xanthine oxidase in vitro (lucigenin chemiluminescence); assay type: biochemical; conditions: for Integral value of intensity of chemiluminescence/10 min: average of two measurements, without AHPP 5.2 × 10^6 count
Experimental: Inhibitory Effect of AHPP against Superoxide Production by Xanthine Oxidase In Vitro
Production of superoxide radicals was determined by measuring a chemiluminescence observed in 100 mM phosphate buffer (pH 7.4) containing 10 μmole/L lucigenin and […] xanthine in the presence of 20 U/ml of xanthine oxidase derived from cow milk. Further, the inhibition of superoxide generation by the AHPP was evaluated by addition of 0-100 μmole/L of AHPP into the reaction mixture.

Rabbit Aortic Ring = test: Relaxation of phenylepherine-contracted rabbit aortic ring by acetylcholine in the presence of AHPP; parameters: species or system New Zealand White rabbit; conditions: for Amount of acethylcholine required to inhibit 50% relaxation of aorta ring: 0.11 without AHPP
Experimental: Synergistic Vascular Relaxation Effect to Acetylcholine of Rabbit Aortic Ring by AHPP Aortic ring with a diameter of 5 mm was prepared from chest aorta of New Zealand White female rabbits with a body weight of 2.5-3.0 kg. The rings were surgically prepared and hanged into the organ bath containing 20 ml of Krebs solution, which was kept at 37° C. and supplemented with 95% O2 and 5% CO2, for determination of the tension. Aortic ring relaxation by […] acetylcholine was measured in the prescence of 0, 100, and 300 μmole/L of AHPP, after aortic ring contraction was induced by 0.15 μmole/L phenylepherine.

[3] = test system: Spontaneously Hypertensive Rats; test: Mean arterial blood pressure of spontaneously hypertensive rats after intravenous injection; assay type: in vivo, rat; conditions: 50 mg/kg, average of 8 rats
Experimental: Effect of Intravenous Injection of AHPP on the Blood Pressure of Spontaneously Hypertensive Rats
Eighteen weeks old spontaneously hypertensive 8 male rats weighing 300-400 g were intravenously infused with 50 mg/kg of AHPP in a solution dissolved in 1 ml of 0.1 M NaOH for 5 minutes (8 rats), and mean arterial blood pressure was measured under anesthesia. Eight control rats were received only 0.1 M NaOH by intravenous infusion.
Dose of AHPP. 50 mg/kg in rats. 0.33 mmol/ml, 1.0 ml/5 min. See text for details. Average value of 8 measurements ±SD.

[4] = test system: Spontaneously Hypertensive Rats; test: Systolic blood pressure of spontaneously hypertensive rats after oral administration; assay type: in vivo, rat; conditions: 100 mg/kg oral, 4 hours after treatment, male spontaneously hypertensive rats
Experimental: Effects of Oral Administration of AHpp on the Blood Pressure of Spontaneously Hypertensive Rats
Four male spontaneously hypertensive rats with a body weight of […] and 4 male rats with a body weight of 200-300 g were orally given with 100 mg/kg of AHPP and a systolic blood pressure in tail artery was examined 4 hours after the treatment. Systolic blood pressure of the treated group was reduced to 70% the value of before

xanthine oxidase = conditions: J. Biol. Chem., 226, 993-1000, 1957; cited from earlier work
xanthine dehydrogenase = conditions: Yokohama Med. Bull., 29, 53-58, 1978; cited from earlier work
tryptophan pyrolase = conditions: Life Sci., 8, 843-851, 1969; cited from earlier work

Sequence of xanthine oxidase derived from cow milk (P80457 whole entry): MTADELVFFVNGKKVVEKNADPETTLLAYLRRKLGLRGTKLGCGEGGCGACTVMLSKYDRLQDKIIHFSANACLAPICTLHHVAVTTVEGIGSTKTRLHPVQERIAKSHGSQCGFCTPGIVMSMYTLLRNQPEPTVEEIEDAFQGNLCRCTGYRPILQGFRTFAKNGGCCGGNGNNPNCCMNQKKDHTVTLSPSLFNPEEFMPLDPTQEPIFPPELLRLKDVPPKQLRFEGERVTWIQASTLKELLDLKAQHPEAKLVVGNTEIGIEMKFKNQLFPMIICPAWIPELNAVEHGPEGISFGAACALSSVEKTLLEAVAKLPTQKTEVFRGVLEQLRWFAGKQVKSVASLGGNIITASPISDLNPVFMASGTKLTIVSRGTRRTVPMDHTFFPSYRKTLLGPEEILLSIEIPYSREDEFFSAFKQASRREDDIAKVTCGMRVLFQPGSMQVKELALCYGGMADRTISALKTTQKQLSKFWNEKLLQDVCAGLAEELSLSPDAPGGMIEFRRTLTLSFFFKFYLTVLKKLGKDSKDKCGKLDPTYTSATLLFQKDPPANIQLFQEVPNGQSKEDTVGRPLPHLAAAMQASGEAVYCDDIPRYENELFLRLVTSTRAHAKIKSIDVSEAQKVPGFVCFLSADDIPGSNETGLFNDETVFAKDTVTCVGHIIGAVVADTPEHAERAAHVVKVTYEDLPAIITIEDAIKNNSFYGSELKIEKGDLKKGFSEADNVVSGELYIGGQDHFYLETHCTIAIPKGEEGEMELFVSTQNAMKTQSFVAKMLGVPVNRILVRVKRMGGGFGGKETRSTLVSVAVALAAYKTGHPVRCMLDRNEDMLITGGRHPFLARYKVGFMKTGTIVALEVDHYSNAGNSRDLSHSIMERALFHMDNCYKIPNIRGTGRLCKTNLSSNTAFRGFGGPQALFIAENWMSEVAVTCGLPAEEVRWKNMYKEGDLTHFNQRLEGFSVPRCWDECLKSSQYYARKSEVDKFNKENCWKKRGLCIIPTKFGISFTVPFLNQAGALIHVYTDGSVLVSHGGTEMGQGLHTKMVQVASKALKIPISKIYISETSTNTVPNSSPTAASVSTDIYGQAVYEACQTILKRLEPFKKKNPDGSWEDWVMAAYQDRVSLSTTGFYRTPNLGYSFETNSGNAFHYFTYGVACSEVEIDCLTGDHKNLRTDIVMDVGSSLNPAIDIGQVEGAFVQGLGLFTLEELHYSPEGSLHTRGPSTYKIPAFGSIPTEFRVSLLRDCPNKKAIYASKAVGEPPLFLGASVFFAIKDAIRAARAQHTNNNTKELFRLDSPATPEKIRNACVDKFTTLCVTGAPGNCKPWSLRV
T1 sequence (P80457 whole entry): as above

With Nc1nc(O)nc2[nH]ncc12 [AHPP, 4-amino-6-hydroxypyrazolo [3,4-d]pyrimidine] the “inhibition of uric acid production by xanthine oxidase” value ([1]; 0-0.44 μmole/L AHPP, pH 7.5) was “inhibited by AHPP in a dose-dependent manner”, the Ki ([1]; pH 7.5, 2.19-21.9 μmole/L xanthine, 0-0.44 μmole/L AHPP, 3.33 mU/ml enzyme, read-out: inhibitory coefficient (Ki) for xanthine oxidase) was 200 nM and the “type of inhibition of xanthine oxidase” value ([1]; reaction velocity kinetics) was “competitive inhibition”. For the same compound, the “inhibition of superoxide production by xanthine oxidase” value ([2]; 0-100 μmole/L AHPP, pH 7.4) was “inhibit superoxide production by xanthine oxidase in a dose-dependent manner”, the “Integral value of intensity of chemiluminescence/10 min” value ([2]; 1 μmole/L AHPP) was 4.4 × 10^6 count and the “Integral value of intensity of chemiluminescence/10 min” value ([2]; 10 μmole/L AHPP) was 1.6 × 10^6 count. For the same compound, the “dose of phenylepherine required for 50% relaxation of phenylepherine-induced aortic ring contraction” value (Rabbit Aortic Ring; 0, 100, and 300 μmole/L AHPP) was “reduced depending on the concentration of AHPP”, the “Amount of acethylcholine required to inhibit 50% relaxation of aorta ring” value (Rabbit Aortic Ring; 100 μmole/L AHPP, contraction by 0.15 μmole/L phenylepherine, average of four measurements) was 0.075 and the “Amount of acethylcholine required to inhibit 50% relaxation of aorta ring” value (Rabbit Aortic Ring; 300 μmole/L AHPP, contraction by 0.15 μmole/L phenylepherine, average of four measurements) was 0.055. The “Mean arterial blood pressure (100% = preinjection value)” value ([3]; 5 min after iv, control 105.5 ± 7.5) was 98.3 ± 2.7%, the “Mean arterial blood pressure (100% = preinjection value)” value ([3]; 10 min after iv, control 107.3 ± 6.9) was 92.2 ± 6.1% and the “Mean arterial blood pressure (100% = preinjection value)” value ([3]; 15 min after iv, control 106.1 ± 6.3) was 91.1 ± 5.6%. For the same compound, the “Mean arterial blood pressure (100% = preinjection value)” value ([3]; 20 min after iv, control 105.0 ± 6.6) was 86.9 ± 8.0%, the “Mean arterial blood pressure (100% = preinjection value)” value ([3]; 30 min after iv, control 103.3 ± 4.2) was 81.7 ± 5.0% and the “Mean arterial blood pressure (100% = preinjection value)” value ([3]; 40 min after iv, control 100.5 ± 3.1) was 77.7 ± 5.2%. The “Mean arterial blood pressure (100% = preinjection value)” value ([3]; 50 min after iv, control 98.9 ± 3.3) was 76.1 ± 7.2%, the “Mean arterial blood pressure (100% = preinjection value)” value ([3]; 60 min after iv, control 97.5 ± 4.1) was 73.5 ± 7.5% and the “Mean arterial blood pressure (100% = preinjection value)” value ([3]; 70 min after iv, control 96.7 ± 5.0) was 72.4 ± 6.6% and 72%. The “Systolic blood pressure in tail artery, % of value before” value [4] was 70%, the “inhibition of xanthine oxidase” value (xanthine oxidase) was “potent inhibitor” and the “inhibition of xanthine dehydrogenase” value (xanthine dehydrogenase) was “potent inhibitor”. For the same compound, the “inhibition of tryptophan pyrolase” value (tryptophan pyrolase) was “potent inhibitor”.
CC(=O)OCC[N+](C)(C)C [acetylcholine, reference compound] showed an EC50 (Rabbit Aortic Ring; Oryctolagus cuniculus, 0 μmole/L AHPP, contraction by 0.15 μmole/L phenylepherine, average of four measurements, read-out: Amount of acethylcholine required to inhibit 50% relaxation of aorta ring) of 110 nM.
